# Experimental data published in patent publication US9428487B2, “Heteroaromatic amides and thioamides as pesticides” (Bayer Intellectual Property GmbH, priority 2008, dated 2016).
# Read-outs that look alike come from different tables or passages of the source.
# Assays:
# [1] = Determination of log P values by HPLC on reversed-phase column (formic acid method); assay type: physicochemical
# Outline: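 Reversed-phase C18 HPLC per EEC Directive 79/831 Annex V.A8, pH 3.4, acetonitrile/water with formic acid, gradient 10% to 95% acetonitrile in 4.25 min. log P obtained from retention times by linear interpolation between successive unbranched alkan-2-ones (C3–C16) of known log P.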
# [2] = tested on: green peach aphid (Myzus persicae); experiment: Myzus test; assay type: in vivo; conditions: read-out: efficacy (aphids killed)
# Outline: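 Active ingredient formulated in acetone/dimethylformamide with alkylaryl polyglycol ether emulsifier, diluted in emulsifier-containing water. Sprayed onto Chinese cabbage leaf discs carrying all aphid stages; % efficacy scored after set time (100% = all aphids dead).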
# [3] = reversed-phase HPLC column (C 18), pH 3.4, HPLC, reversed-phase C 18, acidic range (pH 3.4), formic acid eluents, 55° C., read-out: logP (HCOOH)
# [4] = application rate 500 g/ha, spray on Chinese cabbage leaf slices
# [5] = HPLC, reversed-phase C 18, acidic range (pH 3.4), formic acid eluents, 55° C., read-out: logP (HCOOH)
SMILES,"chromatographic logP [1, 3]","pest or weed control at 500 g/ha [2, 4] [%]",other results
CCN(OC)C(=O)c1cnc(-c2cccnc2)s1 [Compound 183],1.53,≥ 70,–
COc1ccc(CN(CC(F)(F)F)C(=O)c2sc(-c3cccnc3)nc2C)cc1 [Compound 185],2.91,≥ 70,–
Cc1ccc(CNC(=O)c2cnc(-c3cccnc3)s2)o1 [Compound 186],1.77,≥ 70,–
CCN(CC1CCCO1)C(=O)c1sc(-c2cccnc2)nc1C (centres unmarked) [Compound 187],1.64,≥ 70,–
COCN(CC1COCCO1)C(=O)c1sc(-c2cccnc2)nc1C (centres unmarked) [Compound 188],1.45,≥ 70,–
CCC(=O)N(CC#N)C(=O)c1cnc(-c2cccnc2)s1 [Compound 190],1.77,≥ 70,–
CSC[C@H](C)NC(=O)c1cnc(-c2cccnc2)s1 [Compound 191],1.53,≥ 70,–
CN(CC(F)(F)F)C(=O)c1cnc(-c2cccnc2)s1 [Compound 192],1.59,≥ 70,–
Cc1nc(-c2cccnc2)sc1C(=O)NC1(c2ncccn2)CC1 [Compound 193],1.21,≥ 70,–
Cc1nc(-c2cccnc2)sc1C(=O)NC(C)C1CCCO1 (centres unmarked) [Compound 195],1.5,≥ 70,–
COC(=O)N(C)NC(=O)c1sc(-c2cccnc2)nc1C [Compound 196],–,≥ 70,"chromatographic logP [1, 5]: 1.23"
CCOC(=O)N(C)NC(=O)c1sc(-c2cccnc2)nc1C [Compound 197],–,≥ 70,"chromatographic logP [1, 5]: 1.48"
"Cc1nc(-c2cccnc2)sc1C(=O)NCC(F)(F)Cl [Preparation Example 1, N-(2-chloro-2,2-difluoroethyl)-4-methyl-2-pyridin-3-ylthiazole-5-carboxamide]",1.84,–,pest or weed control at 500 g/ha ([2]; in Brassica rapa): ≥ 70%
Cc1cc(C)nc(CNC(=O)c2cnc(-c3cccnc3)s2)n1 [Preparation Example 3],1.19,–,pest or weed control at 500 g/ha ([2]; in Brassica rapa): ≥ 70%
Cc1nc(-c2cccnc2)sc1C(=S)NCC(F)(F)F [Preparation Example 4],2.39,≥ 70,"logP (HCOOH) ([1]; HPLC, reversed-phase C 18, acidic range (pH 3.4), formic acid eluents, 55° C.): 2.38"
Cc1nc(-c2cncnc2)sc1C(=O)NCC(F)(F)F [Preparation Example 5],1.61,≥ 70,–
O=C(NCc1ncccn1)c1nnc(-c2cccnc2)s1 [Preparation Example 7],0.85,≥ 70,"chromatographic logP ([1]; pH 7.5, pH=7.5, read-out: log P (pH=7.5)): 0.85"
"CN(C)C(=O)c1nnc(-c2cccnc2)s1 [Preparation Example 8, N,N-dimethyl-5-pyridin-3-yl[1,3,4]thiadiazole-2-carboxamide]",–,–,"chromatographic logP [1, 5]: 0.95; pest or weed control at 500 g/ha ([2]; in Brassica rapa): ≥ 70%"

# Further lines, with some results ahead:
"chromatographic logP [1, 3]",SMILES,"pest or weed control at 500 g/ha [2, 4] [%]",other results
1.05,Cc1nc(-c2cccnc2)sc1C(=O)NCC#N [Compound 184],≥ 70,–
2.13,Cc1nc(-c2cccnc2)sc1C(=O)NCC(F)(F)C(F)(F)F [Compound 189],≥ 70,–
1.47,Cc1nc(-c2cccnc2)sc1C(=O)NC1CSC1 [Compound 194],≥ 70,–
1.44,CCC1(CC)NC(=O)N(NC(=O)c2sc(-c3cccnc3)nc2C)C1=O [Compound 199],≥ 70,–
1.01,Cc1nc(-c2cccnc2)sc1C(=O)NN(C)Cc1ccccn1 [Compound 200],≥ 70,–
1.37,Cc1nc(-c2cccnc2)sc1C(=O)NN1CCCC1 [Compound 201],≥ 70,–
1.39,Cc1nc(-c2cccnc2)sc1C(=O)NN1CCCCC1 [Compound 202],≥ 70,–
1.23,Cc1nc(-c2cccnc2)sc1C(=O)NN1CCOCC1 [Compound 203],≥ 70,–
1.11,Cc1nc(-c2cccnc2)sc1C(=O)NN1CCOC1=O [Compound 204],≥ 70,–
